The record followed here is patent US6423718B1, “4,4-disubstituted-3,4-dihydro-2(1H)-quinazolinones useful as HIV reverse transcriptase inhibitors” (Bristol-Myers Squibb Pharma Company, priority 1997, dated 2002).

Converted amounts (≈) assume the structure as drawn.

One data set deals with HIV-1 (RF). The data set can be described thus: HIV RNA assay: microplate based compound evaluation in HIV-1 infected MT-2 cells (IC90). Format: cell-based. The following applies: Human immunodeficiency virus 1, MT2, 72 h; HIV-1 (RF) infected MT-2 cells, 3 days of culture; virus dilutions selected to standardize the inoculum; read-out: IC90 value (concentration of compound required to reduce the HIV RNA level by 90%). The protocol:
Plasmid pDAB 72 containing both gag and pol sequences of BH10 (bp 113-1816) cloned into PTZ 19R was prepared according to Erickson-Viitanen et al. AIDS Research and Human Retroviruses 1989, 5, 577. The plasmid was linearized with Ban HI prior to the generation of in vitro RNA transcripts using the Riboprobe Gemini system II kit (Promega) with T7 RNA polymerase. Synthesized RNA was purified by treatment with RNase free DNAse (Promega), phenol-chloroform extraction, and ethanol precipitation. RNA transcripts were dissolved in water, and stored at −70° C. The concentration of RNA was determined from the A260.
Biotinylated capture probes were purified by HPLC after synthesis on an Applied Biosystems (Foster City, Calif.) DNA synthesizer by addition of biotin to the 5′ terminal end of the oligonucleotide, using the biotin-phosphoramidite reagent of Cocuzza, Tet. Lett. 1989, 30, 6287. […]
MT-2 and MT-4 cells were maintained in RPMI 1640 supplemented with 5% fetal calf serum (FCS) for MT-2 cells or 10% FCS for MT-4 cells, 2 mM L-glutamine and 50 μg/mL gentamycin, all from Gibco. […] Infectious titers of HIV-1 (RF) stocks were 1-3×10^7 PFU (plaque forming units)/mL as measured by plaque assay on MT-2 cells (see below). […]
As to `Nc1ccn([C@H]2CC[C@@H](CO)O2)c(=O)n1` [ddC, 2′,3′-dideoxycytidine], the IC90 was 0.2 µg/mL (≈ 0.947 µM).

System in a further data set: not given
Experiment: not given
Conditions: not given
On to `COc1ccc2c(c1)C(C#CC1CC1)(C(F)(F)F)NC(=O)N2` (racemic) [Example 6, (+/−)-4-Cyclopropylethynyl-6-methoxy-4-trifluoromethyl-3,4-dihydro-2(1H)-quinazolinone], for which the melting point – broadly, the temperature of the solid-liquid transition – was found to be 208 °C.

On to `CC(C)CCC1(C(F)(F)F)NC(=O)Nc2ccc(F)c(F)c21` (racemic) [Example 15, (+/−)-5,6-Difluoro-4-isopentyl-4-trifluoromethyl-3,4-dihydro-2(1H)-quinazolinone], for which the melting point lay in the range of 192 to 193 °C.

In turn, `O=C1Nc2ccc(F)cc2C(C#CC2CC2)(C(F)(F)F)N1` (racemic) [Example 17, (+/−)-4-Cyclopropylethynyl-6-fluoro-4-trifluoromethyl-3,4-dihydro-2(1H)-quinazolinone] displayed a melting point of 155 °C.

As for `CC(C)CCC1(C(F)(F)F)NC(=O)Nc2ccc(F)cc21` (racemic) [Example 22, (+/−)-6-Fluoro-4-isopentyl-4-trifluoromethyl-3,4-dihydro-2(1H)-quinazolinone], the melting point was 179 °C.

`CCCCC1(C(F)(F)F)NC(=O)Nc2ccc(F)cc21` (racemic) [Example 24, (+/−)-4-Butyl-6-fluoro-4-trifluoromethyl-3,4-dihydro-2(1H)-quinazolinone] came in with a melting point of 198 °C.

`O=C1Nc2ccc(F)cc2C(CCc2ccccc2)(C(F)(F)F)N1` (racemic) [Example 25, (+/−)-6-Fluoro-4-phenylethyl-4-trifluoromethyl-3,4-dihydro-2(1H)-quinazolinone] yielded a melting point of 98 °C.
